Biological target: PDE 4 (cytosolic fraction from human polymorphonuclear lymphocytes (PMNLs))
Assay: Inhibition of phosphodiesterase 4 (SPA assay, [3H]-cAMP substrate)
Type: biochemical
Settings: enzyme preparation from human PMNLs; 0.5 μM [3H]-cAMP; 37° C., 30 minutes
Description: The PDE 4 activity is determined using enzyme preparations from human polymorphonuclear lymphocytes (PMNLs).
Human blood (buffy coats) was anticoagulated with citrate. The platelet-rich plasma in the supernatant is separated from the erythrocytes and leucocytes by centrifuging at 700×g for 20 minutes at room temperature (RT). The PMNLs for the PDE 4 determination are isolated by means of a subsequent dextran sedimentation followed by a gradient centrifugation using Ficoll-Paque. After the cells have been washed twice, the erythrocytes which are still present are lysed within 6 minutes by adding 10 ml of hypotonic buffer (155 mM NH4Cl, 10 mM NaHCO3, 0.1 mM EDTA, pH=7.4) at 4° C. The PMNLs, which are still intact, are washed a further two times with PBS and lysed by ultrasonication. The supernatant obtained after centrifuging at 48 000×g at 4° C. for one hour contains the cytosolic PDE 4 fraction and is used for the PDE 4 measurements.
The phosphodiesterase activity is measured using a modified Amersham Pharmacia Biotech method, i.e. an SPA (scintillation proximity assay) assay. The reaction mixtures contain buffer (50 mM tris-HCl (pH 7.4), 5 mM MgCl2, 100 μM cGMP), varying concentrations of the inhibitors, and the corresponding enzyme preparation. The reaction is started by adding the substrate, i.e. 0.5 μM [^3H]-cAMP. The final volume is 100 μl. Test substances are prepared as stock solutions in DMSO. The concentration of DMSO in the reaction mixture is 1% v/v. This DMSO concentration has no effect on PDE activity. After the reaction has been started by adding the substrate, the samples are incubated at 37° C. for 30 minutes. The reaction is stopped by adding a defined quantity of SPA beads and the samples are measured in a beta counter after one hour. The nonspecific enzyme activity (i.e. the blank) is determined in the presence of 100 μM rolipram and subtracted from the test values. The incubation mixtures for the PDE 4 assay contain 100 μM cGMP in order to inhibit any contamination of PDE 3 which may be present.

Structure (SMILES) | IC50
O=C(Nc1c(Cl)cncc1Cl)C(=O)c1cn(Cc2ccc(Cl)cc2)c2c(O)cccc12 [Compound 2, N-(3,5-dichloropyrdin-4-yl)-[1-(4-chlorobenzyl)-7-hydroxyindol-3-yl]glyoxylamide] | 2 nM
O=C(Nc1c(Cl)cncc1Cl)C(=O)c1cn(Cc2ccc(F)cc2)c2cccc(O)c12 [Compound 4] | 938 nM
O=C(Nc1c(Cl)cncc1Cl)C(=O)c1cn(Cc2ccc(F)cc2)c2c(O)cccc12 [Compound 5] | 15 nM
O=C(Nc1c(Cl)cncc1Cl)C(=O)c1cn(Cc2ccccc2F)c2c(O)cccc12 [Compound 6] | 1 nM
O=C(Nc1c(Cl)cncc1Cl)C(=O)c1cn(Cc2cccc([N+](=O)[O-])c2)c2c(O)cccc12 [Compound 7] | 2 nM
O=C(Nc1c(Cl)cncc1Cl)C(=O)c1cn(Cc2c(F)cccc2F)c2c(O)cccc12 [Compound 8] | 2 nM
CC(C)Cn1cc(C(=O)C(=O)Nc2c(Cl)cncc2Cl)c2cccc(O)c21 [Compound 15] | 20 nM
O=C(Nc1c(Cl)cncc1Cl)C(=O)c1cn(CC2CC2)c2c(O)cccc12 [Compound 16] | 30 nM
O=C(Nc1c(Cl)cccc1Cl)C(=O)c1cn(Cc2ccc(F)cc2)c2c(O)cccc12 [Compound 17] | 141 nM
O=C(Nc1c(Cl)cncc1Cl)C(=O)c1cn(Cc2ccc(O)cc2)c2c(O)cccc12 [Compound 22] | 3 nM
